This note sets out measurements from publication PMC6522930, “Design, synthesis and biological activity evaluation of a new class of 2,4-thiazolidinedione compounds as insulin enhancers” (Journal of Enzyme Inhibition and Medicinal Chemistry, 2019).

The nature of data set [1]: Acute toxicity test (LD50). The data set is classed as in vivo. The conditions noted are these: oral administration; n ≥ 3.
The test system of data set [2] is healthy mice. As to the kind of experiment: Oral glucose tolerance test. It counts as in vivo. The procedure:
In vivo experiments, glucose tolerance test, insulin tolerance test, cell survival experiment and acute toxicity were used as the test indicators (Tables 2, [3] and [4]). In Table 2, we chose dose 10 mg kg^−1 d^−1 and used oral administration. […] The mice were given the drug for 10 d, blood was collected from the tail vein of the mice before and after the sugar load for 1 h and 2 h, and the blood glucose level of the mice before and after the sugar load was measured by the glucometer.
(§1) (1) Glucose tolerance test: The healthy mice (20 ± 2 g) were selected. After 1 week of acclimation, mice with no body surface damage, good general condition and flexible reaction were selected for the experiment. The test compounds were dissolved with DMSO, and were given a dose volume of 0.2 ml 10 g^−1, and a dose of 10 mg kg^−1, and given by gavage (oral) once a day. […] The mice were given the drug for 10 d, and after the last dose, the mice fasted for 12 h. The next day, blood was collected from the tail vein of the mice before and after the sugar load for 1 h and 2 h, and the blood glucose level of the mice before and after the sugar load was measured by the glucometer. […] The 12 h of fasting after the last administration, blood was taken from the orbital venous plexus (used to measure the blood glucose level after fasting). Each group was immediately given a subcutaneous injection of 0.2 μg kg^−1 of insulin. After 1 h and 2 h of injection, blood was taken again. (3) Cell survival experiment: The HUVEC cells were inoculated on the 96-well plate at the initial concentration of 3 × 10^3 cells/holes, and 100 μl RPMI 1640 medium were added to each hole. At 5% CO2 and 37 °C cell cultivation in 24 h, every pore solution in different concentrations. […] And determine the hole under 460 nm wavelength absorbance value (A).

Data set [3] in a line: Lipid–water partition coefficient (log p). It counts as physicochemical. The source says: (§2) Drug in vitro experiment was one of the basic contents to evaluate drugs activity, and it was a necessary approach to research drugs. Drugs’ efficacy was often affected by some physical and chemical properties of compounds, such as lipid–water partition coefficient (log p), and dissociation degree (pKa). […] In Table 1, we could find that target compounds were fat-soluble. The fat-soluble compounds were favourable for drugs absorption, and drugs were easy to enter the cells. […] The pKa will affect the absorption and delivery of the drugs, different environmental (acid and alkalinity) medicine may be different, sometimes exists in the form of ions, sometimes exists in the form of molecules. Usually in the form of ion drugs has no effect. Therefore, it was necessary to study the dissociation degree (pKa) of drugs to study the pharmacodynamics. […] After the physical and chemical properties were studied, the biological activity was studied. […] After that, the target compounds 6a, 6e, 6f, 6g and 6i had good biological activity and were preliminarily screened out for further study on PPARγ receptor agonist activity (Figure 5).

Another data set has as its system HUVEC cells. As to the kind of experiment: Cell survival experiment (cytotoxicity). The data set is classed as cell-based. To be noted: for Cell survival rate: HUVEC cells. The procedure:
as §1

Data set [4] has as its system healthy mice. As to the kind of experiment: Insulin tolerance test (blood glucose under insulin load). The data set is classed as in vivo. The procedure: as §1
A further data set has as its target T1, PPARα (Homo sapiens, UniProt Q07869).
T1 construct: expressed in transfected cells
T1 sequence (Q07869 1-468): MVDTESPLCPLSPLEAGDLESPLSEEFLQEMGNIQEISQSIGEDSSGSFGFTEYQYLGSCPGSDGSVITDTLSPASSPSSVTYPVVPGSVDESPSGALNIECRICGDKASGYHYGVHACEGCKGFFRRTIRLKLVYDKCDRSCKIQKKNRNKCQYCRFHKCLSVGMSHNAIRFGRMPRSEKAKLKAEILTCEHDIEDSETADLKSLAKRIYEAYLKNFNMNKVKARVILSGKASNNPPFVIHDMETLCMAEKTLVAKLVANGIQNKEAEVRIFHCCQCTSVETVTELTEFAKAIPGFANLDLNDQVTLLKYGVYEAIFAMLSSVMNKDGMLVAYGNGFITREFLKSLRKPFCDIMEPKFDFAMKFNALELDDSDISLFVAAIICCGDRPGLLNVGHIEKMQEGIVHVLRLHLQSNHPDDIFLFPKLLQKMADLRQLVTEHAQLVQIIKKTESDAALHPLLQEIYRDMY
In words: In vitro activation of PPARα (cells containing PPAR, EC50). The conditions noted are these: n ≥ 8, 24 h; for EC50: read-out: EC50 ± SD PPARα. The data set is classed as cell-based. The procedure: (§3) According to the literature, the cells containing PPAR (α, β and γ) were obtained and transfected into 96-well plates the day before for cells culture. Transfection was performed according to the instructions of human PPAR enzyme-linked immunoassay. […] After 24 h, the drugs were added, and 20 μl of MTT was added to each well for another 6 h, and the cell liquid was collected by removing the culture medium, and 150 μl of DMSO was added to each hole. And the absorbance value (A) of each hole was measured under the wavelength of 460 nm.

For the next data set, the target named is T2, PPARγ (Homo sapiens, UniProt P37231).
T2 construct: expressed in transfected cells
T2 sequence (P37231 1-505): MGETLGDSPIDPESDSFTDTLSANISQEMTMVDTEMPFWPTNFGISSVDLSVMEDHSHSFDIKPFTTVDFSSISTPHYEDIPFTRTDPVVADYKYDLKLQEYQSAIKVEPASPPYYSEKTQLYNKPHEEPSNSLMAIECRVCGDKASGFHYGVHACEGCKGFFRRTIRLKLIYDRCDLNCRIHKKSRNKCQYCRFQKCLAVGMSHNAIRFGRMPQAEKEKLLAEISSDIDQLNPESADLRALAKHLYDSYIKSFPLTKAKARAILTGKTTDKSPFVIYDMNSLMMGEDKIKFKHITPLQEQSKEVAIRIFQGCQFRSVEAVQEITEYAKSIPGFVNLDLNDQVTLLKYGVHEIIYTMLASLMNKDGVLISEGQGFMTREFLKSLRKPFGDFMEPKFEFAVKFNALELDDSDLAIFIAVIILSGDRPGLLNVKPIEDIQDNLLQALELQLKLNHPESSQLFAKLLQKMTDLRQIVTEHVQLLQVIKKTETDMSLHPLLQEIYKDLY
As to the kind of experiment: In vitro activation of PPARγ (cells containing PPAR, EC50). It counts as cell-based. The conditions noted are these: n ≥ 8; 24 h; read-out: EC50 ± SD PPARγ. The procedure:
as §3

The nature of data set [5]: Dissociation degree (pKa). The data set is classed as physicochemical.
Excerpt: as §2

For another data set, the target named is T3, PPARβ (Homo sapiens, UniProt Q03181).
T3 construct: expressed in transfected cells
T3 sequence (Q03181 1-441): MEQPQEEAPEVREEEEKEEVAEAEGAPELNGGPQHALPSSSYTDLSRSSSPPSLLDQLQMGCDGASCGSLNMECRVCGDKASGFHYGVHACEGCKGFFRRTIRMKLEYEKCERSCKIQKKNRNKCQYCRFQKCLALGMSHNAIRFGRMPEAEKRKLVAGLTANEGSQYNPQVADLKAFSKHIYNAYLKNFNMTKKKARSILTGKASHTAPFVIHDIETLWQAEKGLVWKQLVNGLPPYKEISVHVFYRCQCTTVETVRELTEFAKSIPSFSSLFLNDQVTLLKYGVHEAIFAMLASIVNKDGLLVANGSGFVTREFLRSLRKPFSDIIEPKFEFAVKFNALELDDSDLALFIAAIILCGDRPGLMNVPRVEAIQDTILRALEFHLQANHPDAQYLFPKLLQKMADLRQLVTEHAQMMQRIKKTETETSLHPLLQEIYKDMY
In words: In vitro activation of PPARβ (cells containing PPAR, EC50). To be noted: n ≥ 8; 24 h; read-out: EC50 ± SD PPARβ. The data set is classed as cell-based. The procedure:
as §3

For the compound `O=C1NC(=O)C(Cc2ccc(OCCNC(=O)c3ccccc3)cc2)S1` (stereo not drawn) [Compound 6a, N-(2–(4-((2,4-dioxothiazolidin-5-yl)methyl)phenoxy)ethyl) benzamide], the “LD50 ± SD” value in data set [1] was 2313.6 ± 1.26 mg/kg. Also, the “Blood glucose levels 1 h” value was found to be 6.342 ± 2.011 mmol/L in the data set with healthy mice [2] (10 mg kg^−1 d^−1 oral for 10 d, 1 h after sugar load) and 1.801 ± 0.531 mmol/L with healthy mice [4] (10 mg kg^−1 d^−1 for 15 d, 1 h after s.c. insulin 0.2 μg kg^−1). The “Blood glucose levels 2 h” value in the data set with healthy mice [2] (10 mg kg^−1 d^−1 oral for 10 d, 2 h after sugar load) worked out at 3.368 ± 1.341 mmol/L; in the data set with healthy mice [4] (10 mg kg^−1 d^−1 for 15 d, 2 h after s.c. insulin 0.2 μg kg^−1), 2.498 ± 1.136 mmol/L. Moreover, the “Blood glucose levels 0 h” value in the data set on healthy mice [2] (10 mg kg^−1 d^−1 oral for 10 d, fasted 12 h, before sugar load) is 3.376 ± 0.361 mmol/L; with healthy mice [4] (10 mg kg^−1 d^−1 for 15 d, fasted 12 h, before insulin), 5.644 ± 1.035 mmol/L. In addition, the “Effect in glucose tolerance test (in words)” value in the data set with healthy mice [2] (10 mg kg^−1 d^−1 oral, 10 d) is given as “good resistance activation to glucose”. Besides, in data set [3], the lipophilicity (logP) (commonly the decadic logarithm of the partition coefficient of the neutral form, usually between octanol and water) was found to be 2.68. Moreover, the “Cytotoxic effect (in words)” value in the data set with HUVEC cells (10^−3–10^−2 mol L^−1) is “no obvious cytotoxic effect”. The Cell survival rate was 93.1 ± 1.21% in the data set on HUVEC cells (10^−2 mol l^−1); 98.1 ± 0.28% in the data set with HUVEC cells (10^−3 mol l^−1); 99.3 ± 0.26% with HUVEC cells (10^−4 mol l^−1); 99.9 ± 0.11% in the data set with HUVEC cells (10^−5 mol l^−1); 100% with HUVEC cells (10^−6 mol l^−1). In addition, the “Effect in insulin tolerance test (in words)” value with healthy mice [4] (10 mg kg^−1 d^−1) is “good resistance activation to insulin”. Also, the “EC50 ± SD PPARα” value at PPARα is “ia^b”. The EC50 (commonly the concentration at which the effect is half-maximal) on PPARγ came out at 0.08 ± 0.02 µM. The pKa (commonly the pH at which an ionisable group is half protonated) in [5] was 10.4.
In data set [3], `O=C1NC(=O)C(Cc2ccc(OCCNC(=O)c3ccccc3)cn2)S1` (stereo not drawn) [Compound 6b, N-(2-((6-((2,4-dioxothiazolidin-5-yl)methyl)pyridin-3-yl)oxy)ethyl) benzamide] gave a logP of 1.77. For the same compound, the EC50 amounted to 9.18 ± 0.89 µM at PPARβ, 12.9 ± 1.29 µM at PPARα and 1.29 ± 0.53 µM at PPARγ. Besides, the pKa in [5] stood at 10.4.
In the case of `O=C1NC(=O)C(Cc2ccc(OCCNC(=O)c3ccccn3)cc2)S1` (stereo not drawn) [Compound 6c, N-(2-(4-((2,4-dioxothiazolidin-5-yl)methyl)phenoxy)ethyl) picolinamide], the log partition coefficient (logP) in data set [3] was found to be 1.92. In addition, the values for the concentration giving a half-maximal response (EC50) at PPARα and on PPARγ were 13 ± 1.56 µM and 0.45 ± 0.21 µM, respectively. The same compound came in with a pKa in data set [5] of 10.
Regarding `O=C1NC(=O)C(Cc2ccc(OCCNC(=O)c3ccccn3)cn2)S1` (stereo not drawn) [Compound 6d, N-(2-((6-((2,4-dioxothiazolidin-5-yl)methyl)pyridin-3-yl)oxy)ethyl) picolinamide], the logP in [3] is 1.38. The EC50 was found to be 12.2 ± 1.21 µM at PPARβ and 3.22 ± 0.65 µM at PPARγ. This compound also registered a pKa in data set [5] of 9.78.
`Cc1ccc(C(=O)NCCOc2ccc(CC3SC(=O)NC3=O)nc2)nc1` (stereo not drawn) [Compound 6h, N-(2-((6-((2,4-dioxothiazolidin-5-yl)methyl)pyridin-3-yl)oxy)ethyl)-5-methylpicolinamide] returned a logP in data set [3] of 2.01. Besides, the results for the EC50 at PPARα and at PPARγ were 10.6 ± 1.86 µM and 0.28 ± 0.13 µM, respectively. In data set [5], the pKa came out at 9.41.
`O=C1NC(=O)C(Cc2ccc(OCCNC(=O)c3ccc(O)cc3)cn2)S1` (stereo not drawn) [Compound 6j, N-(2-((6-((2,4-dioxothiazolidin-5-yl)methyl)pyridin-3-yl)oxy)ethyl)-4-hydroxybenzamide]: the log partition coefficient (logP) in data set [3] came to 2.11. For the same compound, the values for the half-maximal effective concentration (EC50) at PPARβ and on PPARγ were 14.5 ± 1.2 µM and 0.34 ± 0.15 µM, respectively. Besides, the pKa in data set [5] was 9.01.
Compound `O=C1NC(=O)C(Cc2ccc(OCCNC(=O)c3ccc(O)cn3)cn2)S1` (stereo not drawn) [Compound 6l, N-(2-((6-((2,4-dioxothiazolidin-5-yl)methyl)pyridin-3-yl)oxy)ethyl)-5-hydroxypicolinamide] came in with a lipophilicity (logP) in data set [3] of 1.45. For the same compound, the concentration for a half-maximal effect (EC50) on PPARβ is 10.1 ± 1.12 µM; at PPARα, 9.34 ± 1.01 µM; at PPARγ, 2.68 ± 0.46 µM. The compound further displayed a pKa in data set [5] of 8.58.
